Measured values from patent US6964979B2, “R-enantiomers of pyranoindole derivatives and the use thereof for the treatment of hepatitis C virus infection or disease” (Wyeth, priority 2002, dated 2005).

target: T1, HCV RdRp NS5B d21BK (BK strain, 1b subtype) (Hepatitis C virus genotype 1b, UniProt P26663); assay: Hepatitis C polymerase (NS5B RdRp) inhibition, 33P-GTP incorporation filter assay; format: biochemical; conditions: NS5B d21BK 24 nM, 2 hours at room temperature; read-out: HCV pol IC50
T1 construct: NS5B from the BK strain (1b subtype) is expressed in E. coli as a protein in which the 21 C-terminal amino acids are replaced; made in house; host or cells: E. coli
Excerpt: The ability of the compounds of the present invention to inhibit Hepatitis C Polymerase was established by the following experimental procedure:
NS5B from the BK strain (1b subtype) is expressed in E. coli as a protein in which the 21 C-terminal amino acids are replaced with a short linker and a hexahistidine tag ([…]). The purified protein is mixed with radioactive nucleotides and allowed to replicate a heteropolymeric RNA substrate, primed by an endogenous short hairpin, resulting in an approximately 760 nt product. The radioactive product is captured on a filter and quantitated after removal of the unincorporated nucleotides.
(1) Compounds 10 μl at 10 μg/ml in 15% dimethylsulfoxide (DMSO)
• When starting from 100 μg/ml compound stock in […]: • Dispense 5 μl 30% DMSO per well • Dispense 5 μl compound (100 μg/ml) per well. • When starting from 50 μg/ml compound stock in 15% DMSO: • Add 10 μl compound per well. (2) Enzyme Mix:
Add 20 μl enzyme mix into each well of the assay plate. Incubate compound and enzyme at room temperature for 15 minutes. (3) Template Mix—Prepare Ahead
Spin down a tube of RNA (5 μg/tube stored in 75% ethanol and 0.3 M sodium acetate) in a microcentrifuge for 20 minutes. at 4° C. One tube is enough for 1-1.5 plates. Remove as much ethanol from the tube as possible by inverting the tube. Be gentle, pellet RNA may not adhere to the tube. Vacuum dry the RNA. Resuspend the RNA by adding 1 ml of DEPC water, close the cap of the tube tightly. To dissolve RNA, incubate RNA solution on ice for ˜60 minutes and gently vortex. Spin briefly to ensure all RNA solution is down to the bottom of the tube before opening cap. Gently transfer RNA solution into a 5 ml or larger tube. Add another 3 ml of DEPC water (total 4 ml of volume).
Add the following volumes of reagents
Add 20 μl template mix per reaction (i.e. 20 ng of pOF per reaction or ˜3 nM) (4) Incubate reaction at room temperature (22-25° C.) for 2 hours. (5) Stop reaction by adding 50 μl of 170 mM EDTA. • Final concentration of EDTA is 85 mM. (6) Prewet filters of Millipore multiscreen assay plate by adding 200 μl of 0.5 M sodium phosphate buffer, pH 7.0 into each well. Let stand at room temperature for 2-3 minutes. (7) Place the multiscreen filter plate onto a Millipore Manifold and turn on vacuum to allow buffer to flow through. Turn off vacuum. Transfer 80 μl of the reaction product into each well of the filter plate. Let stand for 2-3 minutes. Turn on vacuum to filter reaction product. (8) Turn off vacuum. Add. 200 μl of 0.5 M sodium phosphate buffer, pH 7.0 into each well to wash filter. […]
Percent inhibition is calculated after background subtraction as a percent reduction of activity relative to the positive control (average value of the plate excluding the negative controls). […]

T1 sequence (P26663 2420-2989): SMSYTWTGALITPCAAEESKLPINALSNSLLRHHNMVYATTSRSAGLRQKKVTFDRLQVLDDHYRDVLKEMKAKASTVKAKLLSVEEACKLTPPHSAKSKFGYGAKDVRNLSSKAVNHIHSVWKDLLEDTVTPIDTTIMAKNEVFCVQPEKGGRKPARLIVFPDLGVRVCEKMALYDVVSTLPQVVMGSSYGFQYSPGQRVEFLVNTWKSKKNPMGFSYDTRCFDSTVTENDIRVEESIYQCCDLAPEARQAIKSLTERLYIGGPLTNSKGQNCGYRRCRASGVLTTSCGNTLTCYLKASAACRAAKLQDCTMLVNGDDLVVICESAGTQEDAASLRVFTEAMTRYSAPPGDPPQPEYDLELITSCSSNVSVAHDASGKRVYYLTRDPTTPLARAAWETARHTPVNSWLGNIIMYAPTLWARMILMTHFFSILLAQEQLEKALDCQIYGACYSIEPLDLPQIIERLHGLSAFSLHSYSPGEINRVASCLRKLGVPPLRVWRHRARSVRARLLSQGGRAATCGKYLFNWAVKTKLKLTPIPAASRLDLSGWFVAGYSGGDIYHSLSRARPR

**Q.** For `CCC[C@]1(CC(=O)O)OCCc2c1[nH]c1c(C)ccc(C#N)c21` [Example 1, [(R)-5-cyano-8-methyl-1-propyl-1,3,4,9-tetrahydropyrano[3,4-b]indol-1-yl]acetic acid], which IC50 is on record?
**A.** Its IC50 is 330 nM.

**Q.** For `CCC[C@]1(CC(=O)O)OCCc2c1[nH]c1c(F)ccc(C#N)c21` [Example 2, [(R)-5-cyano-8-fluoro-1-propyl-1,3,4,9-tetrahydropyrano[3,4-b]indol-1-yl]acetic acid], which IC50 is on record?
**A.** The IC50 was 440 nM.

**Q.** `CCC[C@]1(CC(=O)O)OCCc2c1[nH]c1c(Cl)ccc(Cl)c21` [Example 3, [(R)-5,8-dichloro-1-propyl-1,3,4,9-tetrahydropyrano[3,4-b]indol-1-yl]acetic acid] was tested. Which IC50 did it give?
**A.** The IC50 was 60 nM.

**Q.** For `CCC[C@]1(CC(=O)O)OCCc2c1[nH]c1c(C)cc(F)c(C#N)c21` [Example 4, [(R)-5-cyano-6-fluoro-8-methyl-1-propyl-1,3,4,9-tetrahydropyrano [3,4-b]indol-1-yl]acetic acid], which IC50 is on record?
**A.** The IC50 was 80 nM.
